Cc1cnc(NC(=O)C2=C(O)c3ccccc3S(=O)(=O)N2C)s1
Conditions	solubility (mole fraction)
in PEG-400, 298.15 K	0.00932
in PEG-400, 303.15 K	0.0096
in PEG-400, 308.15 K	0.0101
in PEG-400, 313.15 K	0.0104
in PEG-400, 318.15 K	0.0106

in water
Conditions	solubility (mole fraction)
298.15 K	4.24e-07
303.15 K	6.28e-07
308.15 K	9.48e-07
313.15 K	1.34e-06
318.15 K	1.93e-06
